We go through 31 compounds from patent US11820756B2, “Bradykinin B2 receptor antagonists” (Pharvaris Netherlands B.V., priority 2017, dated 2023).

The term microsomal CLint denotes the capacity of the preparation to metabolise the compound, expressed as a volume cleared per time. The low end stands for slow turnover, the high end for rapid turnover. One may read the IC50 as the concentration that gives 50% inhibition.

Series [1] is described as follows: Caco-2 cell permeability assay (efflux ratio). It counts as in vitro ADME, human. Particulars: human, Caco-2, Papp B to A/Papp A to AB, differentiated Caco-2 cell monolayer; read-out: Caco-2 BA/AB (efflux ratio). How it is done:
The permeability of the test compounds was determined with a Caco-2 cell permeability assay according to Hubatsch I. et al (Nat. Protoc. 2007, 2 (9), 2111-2119).
The Caco-2 cell line is a continuous cell of heterogeneous human epithelial colorectal adenocarcinoma cells. When cultured as a confluent monolayer on a permeable support such as a cell culture insert filter, the cells differentiate to form a polarized epithelial cell monolayer that provides a physical and biochemical barrier to the passage of ions and small molecules. In form of the confluent monolayer, the Caco-2 cells serve in the pharmaceutical industry as a well established in vitro model of the human small intestinal mucosa to predict the absorption of orally administered drugs. Assessing transport in both directions (apical to basolateral (A-B) and basolateral to apical (B-A)) across the cell monolayer enables an efflux ratio to be determined which provides an indicator as to whether a compound undergoes active efflux. […] As will be appreciated, active efflux substantially compromises oral bioavailability.

The nature of series [2]: metabolic stability assay in rat liver microsomes. Particulars: pH 7.4; male Wistar rat liver microsomes, 0.5 mg protein/mL, 1 μM test compound, NADPH. Format: in vitro ADME. Here is the method:
Hepatic clearance is the most important drug elimination mechanism in the body and many marketed compounds are cleared by hepatic cytochrome P450-mediated metabolism. The excretion or elimination property of the test compounds was determined with a metabolic stability assay according to Obach R S (Drug Metab. Dispos. 1999, 27(11), 1350-1359).
Assays were performed in 96-deepwell-plates using liver microsomes pooled from male Wistar rats (Corning). Rat liver microsomal incubations were conducted in duplicate and incubation mixtures consisted of liver microsomes (0.5 mg microsomal protein/mL), test compound (1 μM), MgCl2 (2 mM), and NADPH (1 mM) in a total volume of 0.7 ml sodium phosphate buffer (100 mM, pH 7.4). Reactions were commenced with the addition of NADPH and shaken on a horizontal shaker with a fitted heating block at 37° C. At t=0 min and the time points: 10 min, 30 min and 60 min; aliquots (70 μL) were removed from the incubations and added to 140 μl termination mixtures. Termination mixtures consisted of acetonitrile supplemented with diazepam, diclofenac and griseofulvin as internal analytical standards. The quenched samples were processed by mixing and centrifugation (2,200×g, 5 minutes). The particle free supernatant was diluted 1+1 with deionised water and subsequently subjected to LC-MS for quantitative bioanalysis in terms of test compound depletion (pump flow rate: 600 μL/min; Kinetex Phenyl-Hexyl analytical column 2.6 μm, 50×2.1 mm (Phenomenex, Germany)). Incubations containing verapamil at a concentration of 1 μM were used as high clearance positive control (PC; n=2), and incubations without NADPH (70 μl phosphate buffer (supplemented with 2 mM MgCl2) instead of 70 μL NADPH solution), in order to verify that any apparent loss of test item in the assay incubation was due to metabolism, were used as negative control (NC; n=2).
Clint data allow to predict the hepatic clearance in vivo, or, in other words, can be used as an indicator for the half life of a compound in vivo and its oral bioavailability. Highly cleared compounds are generally considered to be unfavourable as they are rapidly cleared in vivo resulting in a short duration of action. Said another way, a lower in vitro intrinsic clearance is usually indicative of a longer half life in vivo and of a better oral bioavailability.
On the technique in general: Microsomes from liver hold many membrane-bound enzymes, among them those of drug oxidation.

Series [3] addresses T1, human bradykinin B2 receptor (hB2R) (Homo sapiens, UniProt P30411).
T1 sequence (P30411 1-391): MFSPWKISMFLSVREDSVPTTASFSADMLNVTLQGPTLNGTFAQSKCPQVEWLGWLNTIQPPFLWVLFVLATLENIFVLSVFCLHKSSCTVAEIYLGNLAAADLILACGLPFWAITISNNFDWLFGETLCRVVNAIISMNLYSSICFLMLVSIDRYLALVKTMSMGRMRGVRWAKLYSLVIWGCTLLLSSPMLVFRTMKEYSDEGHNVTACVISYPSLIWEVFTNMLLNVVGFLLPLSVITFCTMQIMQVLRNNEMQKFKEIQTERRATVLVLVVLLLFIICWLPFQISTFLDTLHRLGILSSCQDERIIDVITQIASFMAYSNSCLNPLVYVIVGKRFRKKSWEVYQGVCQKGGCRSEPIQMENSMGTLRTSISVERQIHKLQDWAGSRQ
The series can be described thus: cell-based human bradykinin B2 receptor calcium mobilization (hB2R-CaM) assay. The note with it: HTS041C cells, bradykinin at EC80, calcium mobilization; read-out: IC50-value towards human bradykinin B2 receptor (hB2R). Summed up:
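HTS041C cells stably expressing hB2R were serum-reduced, loaded with Calcium 6 dye and pre-incubated with compound (8-point, n=2, 0.1% DMSO) for 25 min at 37° C. Bradykinin was then added at EC80. IC50 came from a 4-parameter logistic fit of the max-min fluorescence signal (485/525 nm).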
In general terms: Calcium flux is commonly read through the fluorescence of an indicator in the cells.

Structures are written as SMILES.

As to `[2H][C@@](C)(NC(=O)COC(F)F)c1cc(F)cc(Cl)c1COc1cccc2c(-c3ncnn3C)cc(C)nc12` [Compound 11, (S)—N-(1-deutero-1-(3-chloro-5-fluoro-2-((2-methyl-4-(1-methyl-1H-1,2,4-triazol-5-yl)quinolin-8-yloxy)methyl)phenyl)ethyl)-2-(difluoromethoxy)acetamide], in series [1], the efflux ratio turned out to be 1.3. In series [2], this compound registered a microsomal CLint at 1 μM of 20 µL/min/mg. For the same compound, the IC50 in series [3] was no more than 50 nM.
`Cc1cc(-n2cc(F)cn2)c2cccc(OCc3c(Cl)cccc3C(C)NC(=O)[C@@H](C)O)c2n1` (some centres unmarked) [compound 173, reference compound]: in series [1], the efflux ratio was found to be 1.1. The intrinsic metabolic clearance (microsomal CLint) at 1 μM in series [2] came out at 132 µL/min/mg.
As for `Cc1cc(-n2cc(F)cn2)c2cccc(OCc3c(Cl)cc(F)cc3[C@H](C)NC(=O)[C@@H](C)O)c2n1` [Compound 1, (R)—N—((S)-1-(3-chloro-5-fluoro-2-((4-(4-fluoro-1H-pyrazol-1-yl)-2-methylquinolin-8-yloxy)methyl)phenyl)ethyl)-2-hydroxypropanamide], the efflux ratio in series [1] was determined as 0.7. Moreover, the microsomal CLint at 1 μM in series [2] was 56 µL/min/mg. Moreover, in series [3], the IC50 lay in the range of 51 to 250 nM.
In the case of `Cc1cc(-n2cc(F)cn2)c2cccc(OCc3c(Cl)cccc3C(C)NC(=O)[C@H](C)O)c2n1` (some centres unmarked) [compound 172, reference compound], in series [1], the efflux ratio turned out to be 1.6. Moreover, the microsomal CLint at 1 μM in series [2] turned out to be 56 µL/min/mg.
Regarding `Cc1cc(-n2cc(F)cn2)c2cccc(OCc3c(Cl)cc(F)cc3[C@H](C)N(C)C(=O)[C@H](C)O)c2n1` [Compound 2, (S)—N—((S)-1-(3-chloro-5-fluoro-2-((4-(4-fluoro-1H-pyrazol-1-yl)-2-methylquinolin-8-yloxy)methyl)phenyl)ethyl)-2-hydroxy-N-methylpropanamide], the half-maximal inhibitory concentration (IC50) in series [3] is no more than 50 nM.
Turning to `Cc1cc(-c2ncnn2C)c2cccc(OCc3c(Cl)cccc3C(C)NC(=O)COC(F)F)c2n1` (centres unmarked) [compound 174, reference compound], the efflux ratio in series [1] was found to be 1.3. In series [2], this compound displayed an intrinsic metabolic clearance (microsomal CLint) at 1 μM of 135 µL/min/mg.
With `COC(=O)[C@@H](O)CC(=O)N[C@@H](C)c1cc(F)cc(Cl)c1COc1cccc2c(-n3cc(F)cn3)cc(C)nc12` [Compound 70], the IC50 in series [3] is no more than 50 nM.
Consider `Cc1cc(-n2cc(F)cn2)c2cccc(OCc3c(Cl)cc(F)cc3[C@H](C)NC(=O)C[C@@H](C)O)c2n1` [Compound 26], for which the 50% inhibitory concentration (IC50) in series [3] was no more than 50 nM.
Take `Cc1cc(-n2cc(F)cn2)c2cccc(OCc3c(Cl)cc(F)cc3[C@H](C)N(C)C(=O)C(C)(C)O)c2n1` [Compound 101]: in series [3], the 50% inhibitory concentration (IC50) was no more than 50 nM.
Regarding `Cc1cc(-c2ccnn2C)c2cccc(OCc3c(Cl)cc(F)cc3[C@H](C)NC(=O)[C@@H](C)O)c2n1` [Compound 192], the concentration for half-maximal inhibition (IC50) in series [3] is no more than 50 nM.
With `CC[C@H](O)C(=O)N[C@@H](C)c1cc(F)cc(Cl)c1COc1cccc2c(-n3cc(F)cn3)cc(C)nc12` [Compound 25], in series [3], the IC50 was in the range of 51 to 250 nM.
In the case of `Cc1cc(-c2ncc(C#N)n2C)c2cccc(OCc3c(Cl)cc(F)cc3[C@H](C)NC(=O)COC(F)F)c2n1` [Compound 205], in series [3], the half-maximal inhibitory concentration (IC50) is no more than 50 nM.
On the same count and under the same terms, then `Cc1cc(-n2cc(F)cn2)c2cccc(OCc3c(Cl)cc(F)cc3[C@H](C)NC(=O)c3coc(C)n3)c2n1` [Compound 92], with no more than 50 nM; and `Cc1cc(-n2cc(F)cn2)c2cccc(OCc3c(Cl)cc(F)cc3[C@H](C)NC(=O)c3ocnc3C)c2n1` [Compound 91], with no more than 50 nM.
Same read-out and setting: with `[2H]C([2H])([2H])[C@]([2H])(NC(=O)COC(F)F)c1cc(F)cc(Cl)c1COc1cccc2c(-c3ncnn3C)cc(C)nc12` [Compound 11A, N-[(1S)-1-[3-chloro-5-fluoro-2-({[2-methyl-4-(1-methyl-1H-1,2,4-triazol-5-yl)quinolin-8-yl]oxy}methyl)phenyl](1,2,2,2-^2H4)ethyl]-2-(difluoromethoxy)acetamide] the figure was no more than 50 nM; with `CCn1ncnc1-c1cc(C)nc2c(OCc3c(Cl)cc(F)cc3[C@H](C)NC(=O)c3ccon3)cccc12` [Compound 141], no more than 50 nM.
Same read-out and setting: with `Cc1cc(-n2ncnc2C)c2cccc(OCc3c(Cl)cc(F)cc3[C@H](C)NC(=O)c3cnco3)c2n1` [Compound 95] the figure was no more than 50 nM; with `Cc1cc(-n2cc(F)cn2)c2cccc(OCc3c(Cl)cc(F)cc3[C@H](C)NC(=O)c3ccccn3)c2n1` [Compound 123], 51 to 250 nM.
Regarding `COCCC(=O)N[C@@H](CO)c1cc(F)cc(Cl)c1COc1cccc2c(-n3cc(F)cn3)cc(C)nc12` [Compound 107], in series [3], the IC50 was no more than 50 nM.
For the compound `Cc1cc(-n2ncnc2C)c2cccc(OCc3c(Cl)cc(F)cc3[C@H](C)NC(=O)C(C)F)c2n1` (some centres unmarked) [Compound 193], the IC50 in series [3] is no more than 50 nM.
Take `Cc1cc(-c2ncnn2C)c2cccc(OCc3c(Cl)cc(F)cc3[C@H](C)NC(=O)[C@H](C)F)c2n1` [Compound 203]: the IC50 in series [3] is no more than 50 nM.
With `Cc1cc(-n2cc(F)cn2)c2cccc(OCc3c(Cl)cc(F)cc3[C@H](C)NC(=O)c3cc(C)on3)c2n1` [Compound 88], the half-inhibitory concentration (IC50) in series [3] was in the range of 51 to 250 nM.
`Cc1cc(-n2cc(F)cn2)c2cccc(OCc3c(Cl)cc(F)cc3[C@H](C)NC(=O)[C@@H](O)CC(C)C)c2n1` [Compound 46]: the concentration for half-maximal inhibition (IC50) in series [3] lay in the range of 51 to 250 nM.
Consider `Cc1cc(-n2cc(F)cn2)c2cccc(OCc3c(Cl)cc(F)cc3[C@H](CO)NC(=O)COC(F)F)c2n1` [Compound 106], for which the concentration for half-maximal inhibition (IC50) in series [3] is no more than 50 nM.
Still for that read-out and setting: then `Cc1cc(-n2ncnc2C)c2cccc(OCc3c(Cl)cc(F)cc3[C@H](C)NC(=O)COC(F)F)c2n1` [Compound 9, (S)—N-(1-(3-chloro-5-fluoro-2-((2-methyl-4-(5-methyl-1H-1,2,4-triazol-1-yl)quinolin-8-yloxy)methyl)phenyl)ethyl)-2-(difluoromethoxy)acetamide], with no more than 50 nM; and `Cc1cc(-c2ncnn2C)c2cccc(OCc3c(Cl)cc(F)cc3[C@H](CO)NC(=O)c3cnco3)c2n1` [Compound 191], with no more than 50 nM; and `[2H][C@@](C)(NC(=O)CC(F)F)c1cc(F)cc(Cl)c1COc1cccc2c(-n3ncnc3C)cc(C)nc12` [Compound 209], with no more than 50 nM.
Still for that read-out and setting: then `Cc1cc(-c2ccnn2C)c2cccc(OCc3c(Cl)cc(F)cc3[C@H](C)NC(=O)COC(F)F)c2n1` [Compound 175], with no more than 50 nM.
Turning to `Cc1cc(-c2ncnn2C)c2cccc(OCc3c(Cl)cc(F)cc3[C@H](C)NC(=O)c3cocn3)c2n1` [Compound 128], the IC50 in series [3] was no more than 50 nM.
As for `Cc1cc(-n2cc(F)cn2)c2cccc(OCc3c(Cl)cc(F)cc3[C@H](C)NC(=O)[C@H](O)CC(C)C)c2n1` [Compound 47], in series [3], the IC50 was in the range of 251 to 1000 nM.
Same read-out and setting: with `CC[C@H](NC(=O)COC(F)F)c1cc(F)cc(Cl)c1COc1cccc2c(-n3ncnc3C)cc(C)nc12` [Compound 166] the figure was no more than 50 nM.
